Results reported in the supplement of paper PMC10307832.

Legend:
Assay in all cases: relative viability (nuclei count vs DMSO), 5 days (fraction); higher = more cells survive
A549 = system: A549
How it was run: (§1)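 Each reported value is a median over duplicate plates. It expresses relative viability: treated-well nuclei count divided by vehicle-well nuclei count. Lung cancer cell lines in 1536-well plates were dosed by pin tool a day after seeding, alone with one drug or with a fixed anchor-drug dose plus five library-drug doses (not always all listed) in √10 steps, and nuclei were counted after 5 days.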

ABC-1 = system: ABC-1
How it was run: as §1

Calu-6 = system: Calu-6
How it was run: as §1

EBC-1 = system: EBC-1
How it was run: as §1

EKVX = system: EKVX
How it was run: as §1

IA-LM = system: IA-LM
How it was run: as §1

NCI-H1299 = system: NCI-H1299
How it was run: as §1

NCI-H1623 = system: NCI-H1623
How it was run: as §1

NCI-H1703 = system: NCI-H1703
How it was run: as §1

NCI-H1993 = system: NCI-H1993
How it was run: as §1

NCI-H2085 = system: NCI-H2085
How it was run: as §1

NCI-H2126 = system: NCI-H2126
How it was run: as §1

RERF-LC-KJ = system: RERF-LC-KJ
How it was run: as §1

HCC-44 = system: HCC-44
How it was run: as §1

NCI-H1648 = system: NCI-H1648
How it was run: as §1

`COc1nc(C)cnc1NS(=O)(=O)c1cccnc1-c1ccc(-c2nnco2)cc1` [Zibotentan] + COc1cc2c(Oc3ccc(NC(=O)C4(C(=O)Nc5ccc(F)cc5)CC4)cc3F)ccnc2cc1OCCCN1CCOCC1 [Foretinib] (partner 0.25 µM) showed a relative viability (A549; first compound 0.08 µM) of 1.02, a relative viability (A549; first compound 0.253 µM) of 0.916 and a relative viability (A549; first compound 0.8 µM) of 1.1. For the same molecule, the relative viability (A549; first compound 2.53 µM) was 1.1, the relative viability (ABC-1; first compound 0.08 µM) was 0.9 and the relative viability (ABC-1; first compound 0.253 µM) was 0.936. It also gave a relative viability (ABC-1; first compound 0.8 µM) of 1.06, a relative viability (ABC-1; first compound 2.53 µM) of 1.16 and a relative viability (Calu-6; first compound 0.08 µM) of 0.811. For the same molecule, the relative viability (Calu-6; first compound 0.253 µM) was 0.947, the relative viability (Calu-6; first compound 0.8 µM) was 0.849 and the relative viability (Calu-6; first compound 2.53 µM) was 0.895. For the same molecule, the relative viability (EBC-1; first compound 0.08 µM) was 0.0991, the relative viability (EBC-1; first compound 0.253 µM) was 0.0961 and the relative viability (EBC-1; first compound 0.8 µM) was 0.103. The relative viability (EBC-1; first compound 2.53 µM) was 0.113, the relative viability (EKVX; first compound 0.08 µM) was 0.892 and the relative viability (EKVX; first compound 0.253 µM) was 0.762. The relative viability (EKVX; first compound 0.8 µM) was 1.11, the relative viability (EKVX; first compound 2.53 µM) was 0.875 and the relative viability (IA-LM; first compound 0.08 µM) was 1.06. It also gave a relative viability (IA-LM; first compound 0.253 µM) of 1.15, a relative viability (IA-LM; first compound 0.8 µM) of 1.09 and a relative viability (IA-LM; first compound 2.53 µM) of 1.3. It also gave a relative viability (NCI-H1299; first compound 0.08 µM) of 1.11, a relative viability (NCI-H1299; first compound 0.253 µM) of 1.05 and a relative viability (NCI-H1299; first compound 0.8 µM) of 1.05. For the same molecule, the relative viability (NCI-H1299; first compound 2.53 µM) was 1.13, the relative viability (NCI-H1623; first compound 0.08 µM) was 0.84 and the relative viability (NCI-H1623; first compound 0.253 µM) was 0.765. The relative viability (NCI-H1623; first compound 0.8 µM) was 0.855, the relative viability (NCI-H1623; first compound 2.53 µM) was 0.771 and the relative viability (NCI-H1703; first compound 0.08 µM) was 0.422. The relative viability (NCI-H1703; first compound 0.253 µM) was 0.347, the relative viability (NCI-H1703; first compound 0.8 µM) was 0.395 and the relative viability (NCI-H1703; first compound 2.53 µM) was 0.314. It also gave a relative viability (NCI-H1993; first compound 0.08 µM) of 0.753, a relative viability (NCI-H1993; first compound 0.253 µM) of 0.811 and a relative viability (NCI-H1993; first compound 0.8 µM) of 0.702. The relative viability (NCI-H1993; first compound 2.53 µM) was 0.832, the relative viability (NCI-H2085; first compound 0.08 µM) was 0.97 and the relative viability (NCI-H2085; first compound 0.253 µM) was 1.05. For the same molecule, the relative viability (NCI-H2085; first compound 0.8 µM) was 0.928, the relative viability (NCI-H2085; first compound 2.53 µM) was 1.18 and the relative viability (NCI-H2126; first compound 0.08 µM) was 1.33. The relative viability (NCI-H2126; first compound 0.253 µM) was 1.26, the relative viability (NCI-H2126; first compound 0.8 µM) was 0.982 and the relative viability (NCI-H2126; first compound 2.53 µM) was 1.14. For the same molecule, the relative viability (RERF-LC-KJ; first compound 0.08 µM) was 0.836, the relative viability (RERF-LC-KJ; first compound 0.253 µM) was 0.885 and the relative viability (RERF-LC-KJ; first compound 0.8 µM) was 0.809. For the same molecule, the relative viability (RERF-LC-KJ; first compound 2.53 µM) was 0.849.

In the case of `COc1nc(C)cnc1NS(=O)(=O)c1cccnc1-c1ccc(-c2nnco2)cc1` [Zibotentan] + COc1cccc2cc(-c3nc([C@H]4CC[C@H](C(=O)O)CC4)n4ncnc(N)c34)[nH]c12 [OSI-027] (partner 0.5 µM), the relative viability (ABC-1; first compound 0.08 µM) is reported as 0.608, the relative viability (ABC-1; first compound 0.253 µM) is reported as 0.542 and the relative viability (ABC-1; first compound 0.8 µM) is reported as 0.53. For the same molecule, the relative viability (ABC-1; first compound 2.53 µM) was 0.527, the relative viability (EKVX; first compound 0.08 µM) was 0.715 and the relative viability (EKVX; first compound 0.253 µM) was 0.706. It also gave a relative viability (EKVX; first compound 0.8 µM) of 0.695, a relative viability (EKVX; first compound 2.53 µM) of 0.77 and a relative viability (HCC-44; first compound 0.08 µM) of 0.585. For the same molecule, the relative viability (HCC-44; first compound 0.8 µM) was 0.621, the relative viability (HCC-44; first compound 2.53 µM) was 0.558 and the relative viability (NCI-H1623; first compound 0.08 µM) was 0.423. It also gave a relative viability (NCI-H1623; first compound 0.253 µM) of 0.42, a relative viability (NCI-H1623; first compound 0.8 µM) of 0.424 and a relative viability (NCI-H1623; first compound 2.53 µM) of 0.443. The relative viability (NCI-H1648; first compound 0.08 µM) was 0.255, the relative viability (NCI-H1648; first compound 0.253 µM) was 0.241 and the relative viability (NCI-H1648; first compound 0.8 µM) was 0.256. It also gave a relative viability (NCI-H1648; first compound 2.53 µM) of 0.242, a relative viability (NCI-H1993; first compound 0.08 µM) of 0.522 and a relative viability (NCI-H1993; first compound 0.253 µM) of 0.494. It also gave a relative viability (NCI-H1993; first compound 0.8 µM) of 0.468, a relative viability (NCI-H1993; first compound 2.53 µM) of 0.525 and a relative viability (NCI-H2085; first compound 0.08 µM) of 0.78. The relative viability (NCI-H2085; first compound 0.253 µM) was 0.727, the relative viability (NCI-H2085; first compound 0.8 µM) was 0.442 and the relative viability (NCI-H2085; first compound 2.53 µM) was 0.832. It also gave a relative viability (NCI-H2126; first compound 0.08 µM) of 0.769, a relative viability (NCI-H2126; first compound 0.253 µM) of 0.718 and a relative viability (NCI-H2126; first compound 0.8 µM) of 0.609. It also gave a relative viability (NCI-H2126; first compound 2.53 µM) of 0.684, a relative viability (RERF-LC-KJ; first compound 0.08 µM) of 0.609 and a relative viability (RERF-LC-KJ; first compound 0.8 µM) of 0.521. It also gave a relative viability (RERF-LC-KJ; first compound 2.53 µM) of 0.646.

With `COc1nc(C)cnc1NS(=O)(=O)c1cccnc1-c1ccc(-c2nnco2)cc1` [Zibotentan] + Cc1cc(Nc2cc(N3CCN(C)CC3)nc(Sc3ccc(NC(=O)C4CC4)cc3)n2)n[nH]1 [Tozasertib] (partner 0.1 µM) the relative viability (ABC-1; first compound 0.08 µM) was 0.175, the relative viability (ABC-1; first compound 0.253 µM) was 0.163 and the relative viability (ABC-1; first compound 0.8 µM) was 0.193. For the same molecule, the relative viability (ABC-1; first compound 2.53 µM) was 0.201, the relative viability (EKVX; first compound 0.08 µM) was 0.414 and the relative viability (EKVX; first compound 0.253 µM) was 0.348. For the same molecule, the relative viability (EKVX; first compound 0.8 µM) was 0.365, the relative viability (EKVX; first compound 2.53 µM) was 0.428 and the relative viability (HCC-44; first compound 0.08 µM) was 1.33. The relative viability (HCC-44; first compound 0.8 µM) was 0.852, the relative viability (HCC-44; first compound 2.53 µM) was 0.862 and the relative viability (NCI-H1623; first compound 0.08 µM) was 0.464. For the same molecule, the relative viability (NCI-H1623; first compound 0.8 µM) was 0.43, the relative viability (NCI-H1623; first compound 2.53 µM) was 0.427 and the relative viability (NCI-H1648; first compound 0.08 µM) was 0.499. It also gave a relative viability (NCI-H1648; first compound 0.253 µM) of 0.403, a relative viability (NCI-H1648; first compound 0.8 µM) of 0.47 and a relative viability (NCI-H1648; first compound 2.53 µM) of 0.576. For the same molecule, the relative viability (NCI-H1993; first compound 0.08 µM) was 0.591, the relative viability (NCI-H1993; first compound 0.253 µM) was 0.583 and the relative viability (NCI-H1993; first compound 0.8 µM) was 0.592. For the same molecule, the relative viability (NCI-H1993; first compound 2.53 µM) was 0.606, the relative viability (NCI-H2085; first compound 0.08 µM) was 0.788 and the relative viability (NCI-H2085; first compound 0.253 µM) was 0.698. For the same molecule, the relative viability (NCI-H2085; first compound 0.8 µM) was 0.703, the relative viability (NCI-H2085; first compound 2.53 µM) was 0.821 and the relative viability (NCI-H2126; first compound 0.08 µM) was 0.891. For the same molecule, the relative viability (NCI-H2126; first compound 0.8 µM) was 0.813, the relative viability (NCI-H2126; first compound 2.53 µM) was 0.875 and the relative viability (RERF-LC-KJ; first compound 0.08 µM) was 0.479. For the same molecule, the relative viability (RERF-LC-KJ; first compound 0.8 µM) was 0.562 and the relative viability (RERF-LC-KJ; first compound 2.53 µM) was 0.493.
